Key:
[1] = absolute recovery over vacuum-assisted evaporative concentration; higher = better recovery; conditions: enrichment method: VEC
Summary of the method: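 Absolute recovery was calculated as (response ratio pre − unspiked)/(post − unspiked) × 100 from averages of ≥ 2 replicates. Influent (6 mL), effluent (15 mL), and surface and nanopure water (60 mL) samples were spiked with standards before concentration, after concentration, or not at all, at 200 ng/L for nanopure and surface water or 1000 ng/L for wastewater, with class- and compound-specific adjustments. Samples were evaporated at 55 °C and 20 mbar to about 0.3 mL, made up to 0.4 mL and centrifuged, then internal standards were added before LC-HRMS/MS analysis.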

[2] = absolute recovery over mixed-bed multilayer solid-phase extraction; higher = better recovery; conditions: enrichment method: SPE
Summary of the method: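 Wastewater (100–250 mL, adjusted to pH 6.5 and glass-fibre filtered) or 1000 mL unfiltered nanopure water was loaded on a three-layer mixed-bed cartridge and eluted with basic then acidic ethyl acetate/methanol. Standards were spiked before extraction, after it, or not at all, at 200 ng/L (water) or 1000 ng/L (wastewater), with class exceptions. Internal standards were added afterwards, then LC-HRMS/MS ran in both ionisation modes. Absolute recovery compares background-corrected response ratios of pre- versus post-spiked samples, averaged over at least two replicates.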

[3] = LC retention time (Atlantis T3, 5-95% MeOH gradient, 0.1% formic acid); higher = more retained / less polar
Summary of the method: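 Retention times were recorded for reference standards (purity ≥ 95%) on a polar reversed-phase C18 column (Atlantis T3, 3 × 150 mm, 3 μm) at 0.3 mL/min. Elution used water and methanol, each with 0.1% formic acid, in a gradient from 5 to 95% methanol over 17.5 min. Detection was by high-resolution tandem mass spectrometry on a QExactive Plus, with positive and negative electrospray in separate runs. Peaks were found and integrated in TraceFinder (5 ppm tolerance, at least three points per peak) and then checked by hand.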

SMILES	absolute recovery ([1]; wastewater effluent)	absolute recovery ([1]; wastewater influent)	absolute recovery ([2]; nanopure water)	absolute recovery ([2]; surface water)	absolute recovery ([2]; wastewater effluent)	absolute recovery ([2]; wastewater influent)	LC retention time [3]
CCCN(CCC)c1c([N+](=O)[O-])cc(S(N)(=O)=O)cc1[N+](=O)[O-] [Oryzalin]	105%	91.7%	97%	102%	94%	109%	20.2 min
Nc1c(I)c(N)c(I)c(C(=O)[O-])c1I [3-5-Diamino-2-4-6-triiodobenzoic-acid]	104%	97.2%	95.4%	91.9%	68.2%	82.4%	15.4 min
NC(=O)Cc1ccc(OCC(O)C[NH3+])cc1 (stereo not drawn) [Atenolol-desisopropyl]	87.6%	–	65.5%	70.3%	65.2%	52.7%	6.53 min
CCCOc1nc2ccc(I)cc2c(=O)n1CCC [Proquinazid]	84.4%	62.4%	76.1%	73.6%	78%	65%	24.6 min
CC(C)N(C(=O)CCl)c1ccccc1 [Propachlor]	83.8%	76.9%	84.3%	87%	81.1%	93.3%	18.4 min
OC(Cc1ccccc1Cl)(Cn1[nH]cnc1=S)C1(Cl)CC1 (stereo not drawn) [Prothioconazole]	96.6%	39.8%	–	94.5%	41.8%	14.7%	21.2 min
CC(C)OC(=O)C(C)(C)Oc1ccc(C(=O)c2ccc(Cl)cc2)cc1 [Fenofibrat]	105%	98.6%	70%	86.7%	81%	78.4%	22.5 min
Clc1ccccc1C(c1ccccc1)(c1ccccc1)n1ccnc1 [Clotrimazol]	111%	110%	93.4%	90.3%	85.9%	90.1%	16.6 min
CNC(=O)Oc1cc(C)c(SC)c(C)c1 [Methiocarb]	67.9%	64%	96.3%	95.4%	92.7%	88.7%	19.4 min
C=CS(=O)(=O)[O-] [Vinylsulfonic-acid]	103%	108%	1.5%	–	–	–	3.84 min
CCNc1nc(N)nc(Cl)n1 [Atrazin-Desisopropyl]	102%	103%	93.4%	93.3%	91.3%	94.6%	13.4 min
CCCCOc1ccc(CC(=O)NO)cc1 [Bufexamac]	93.4%	71.9%	88.6%	83.9%	83.3%	84.7%	17.9 min
CCC1(c2cccc(O)c2)CCCC[NH+](C)C1 (stereo not drawn) [Meptazinol]	110%	103%	90.6%	92.9%	86.5%	91.9%	12.1 min
O=C([O-])Cc1ccccc1Nc1c(Cl)cccc1Cl [Diclofenac]	–	98.5%	102%	–	–	–	20.8 min
CCOc1cc(Oc2ccc(C(F)(F)F)cc2Cl)ccc1[N+](=O)[O-] [Oxyfluorfen]	87.1%	92.7%	93.8%	83.9%	82.2%	108%	21 min
Nc1nc(=O)c2ncn(CCC(CO)CO)c2[nH]1 [Penciclovir]	97.1%	104%	84.2%	78.3%	83%	91.8%	7.67 min
CCc1cccc(C)c1N(C(=O)C(=O)[O-])C(C)COC (stereo not drawn) [Metolachlor-OXA]	110%	99.1%	81.6%	67.5%	87.9%	97.3%	21.3 min
COc1c(Cl)ccc(Cl)c1C(=O)[O-] [Dicamba]	104%	106%	95.6%	94%	93.5%	91.2%	19.3 min
CCNC(=O)NC(=O)C(C#N)=NOC [Cymoxanil]	53.4%	69.8%	98.4%	83.5%	87.9%	115%	15.2 min
CC(=O)Nc1ccc(O)cc1 [Paracetamol (=3-Acetamidophenol)]	101%	–	76.7%	–	79.1%	–	10.3 min
O=C(Nc1ccc(F)cc1F)c1cccnc1Oc1cccc(C(F)(F)F)c1 [Diflufenican]	106%	101%	96.6%	92.4%	88%	87.2%	21.4 min
NC(=O)c1c(Cl)cccc1Cl [2-6-Dichlorbenzamid]	102%	107%	93.7%	94.9%	93.8%	93.9%	12.7 min
CCNc1nc(NC(C)C)nc(OC)n1 [Atraton]	101%	102%	92.8%	94.2%	90.4%	96%	14.4 min
CN1C(=O)CCC1c1cccnc1 (stereo not drawn) [Cotinine]	100%	–	109%	135%	112%	–	6.11 min
CC1(C)CC(O)CC(C)(C)[NH+]1CCO [4-Hydroxy-1-(2-hydroxyethyl)-2-2-6-6-tetramethylpiperidine]	92.4%	130%	71.9%	61.7%	54.6%	52.7%	4.55 min
COC(=O)c1sccc1S(=O)(=O)[N-]C(=O)Nc1nc(C)nc(OC)n1 [Thifensulfuron-methyl]	104%	114%	98.9%	95%	93.4%	92.3%	16.7 min

Reference: the supplement of paper PMC6470124
